The record followed here is patent publication US11065211B2, “Isoxylitones mediated neurogenesis” (priority 2018, dated 2021).

Holding throughout (assay type): cell-based, rat
For assay [1], the system named is cortical cells and hippocampal cells. Put plainly: MTT assay, in vitro screening of compounds for cell proliferation activity. The settings on record: 24 hrs treatment. An excerpt: The Tetrazolium MTT [3-(4, 5-dimethyl thiazol-2-yl)-2,5-diphenyl tetrazolium bromide] Assay: MTT assay was used to screen various compounds for their proliferating effect on cortical cells and hippocampal cells. The principle of MTT test is based on the ability of live cells to form insoluble purple formazan product from the breakdown of the water soluble yellow tetrazolium salt by mitochondrial enzyme succinate dehydrogenase (Mosmann, 1983). The resulting intracellular purple formazan can quantify by spectrophotometric means. The MTT Cell Proliferation Assay measures the cell proliferation rate and conversely, when metabolic events lead to apoptosis or necrosis, the reduction in cell viability.
The density of the cortical and hippocampal cells was adjusted at the density 2×10^5 cells/mL in complete DMEM medium (5% FBS). The cells (5000/well) were then plated in 96-wells plate and incubated for 24 hrs at 37° C. with 5% CO2. Following 24 hrs incubation, media was removed and 100 μL of each test compounds in DMEM media (5% FBS) were added. […] The culture plates were re-incubated for 24 hrs at 37° C. in 5% CO2. Cells treated with 0.1% DMSO in complete media (5% FBS) were used as vehicle controls. […] The absorbance was read at 495 nm on spectrophotometer. […] The percent rate of proliferation was calculated using the following formula, % rate of proliferation={(At−Ab)/(Ac−Ab)}×100

Assay [2] relates to Cocul-HP cells. The assay can be described thus: BrdU proliferation ELISA assay. The settings on record: 24 h, increase reported with 100 and 150 μg/mL, FIG. 6. The procedure:
(§1) Wistar rats (150-200 gm) were used to isolate bone marrow (BM). Rats were sacrificed and their femurs were removed aseptically. The bone marrow (BM) was flushed from the shaft of the bone by clipping of the epiphysial ends and flushing using a 26-gauge needle with ˜2 ml of Dulbecco's Modified Eagle's medium (DMEM) supplemented with 5% FBS, 1% penicillin/streptomycin solution, 1% sodium pyruvate and L-glutamine. The BM was then centrifuged for 8 minutes at 1000 rpm. Following centrifugation, cell pellet was collected and 1 ml of fresh DMEM was added. The cell viability was checked using trypan blue exclusion method. The cells were then divided into three equal parts. One part was co-cultured with freshly isolated hippocampal cells in T75 cm^2 flask, 2nd with freshly isolated cortical cells and the third portion (BM cells only) was cultured as a control. The cell density for co-cultures was set at 140,000 cells/ml for each type of culture. The cultured flasks were then incubated at 37° C. and 5% CO2. After 4-5 days, floating hematopoietic cells and dead debris/tissues of hippocampus and cortex were removed and bone marrow stromal cells (BMSCs) were recovered due to their tendency to adhere. Medium was replaced after every 3 to 4 days till cells became 80-90% confluent. […]
For orientation: In an ELISA, binding on a coated surface is turned into a signal by an enzyme label.

The subject of assay [3] is Cocul-CTX cells. Put plainly: BrdU proliferation ELISA assay. The settings on record: 150 μg/ml, 24 h, FIG. 6. The procedure: as §1

Consider `CC(=O)C=C1C=C(C)CC(C)(C)C1` (mixture of isomers) [isoxylitones], for which, in assay [1], the “activity on the cell proliferation (MTT screening)” value is recorded as “significant potent activity”. In addition, the BrdU positive cells entry in assay [2] is “significantly elevated the BrdU positive cells”; in assay [3], “increased BrdU positive cells”.
